Laboratory results as given in patent US20180338922A1, “FIXED DOSE FORMULATIONS” (Esperion Therapeutics, Inc., priority 2017, published 2018).
“Also recorded” adds a separate entry of the source. Like-named read-outs stand apart in the source and are kept apart here. Each block holds one molecule with its values, some of them ahead of it.

How the values were obtained:
[1] = Multimedia dissolution of Bempedoic acid tablets (USP Apparatus-II, 50 rpm, 900 mL); assay type: physicochemical; details: QC medium (phosphate buffer, pH 6.8); in 20 minutes
Experimental: Dissolution characterization was performed in accordance with the dissolution method detailed in IND #106,654. The dissolution conditions were 900 mL phosphate buffer, pH 6.8, using Apparatus-II at 50 rpm.

[2] = Flowability of the APIs (compressibility index, Hausner's ratio); assay type: physicochemical; details: drug substance
[3] = pKa by potentiometric titration; assay type: physicochemical; details: determined by potentiometric titration
[4] = Log partition coefficient (log p); assay type: physicochemical
[5] = Forced degradation of bempedoic acid; assay type: physicochemical
Experimental: Forced degradation of bempedoic acid was carried out to study the impurity profile, degradation pathway, and to facilitate the development of a stability-indicating method. In addition, knowledge obtained from the forced degradation studies was used during formulation and process design and development to prevent impurities from being generated. The specified stress conditions were intended to achieve 5-20% degradation. The stressed samples were compared to the unstressed sample (control).

[6] = Drug-drug compatibility study (HPLC, binary mixture 1:18 ezetimibe:bempedoic acid, solid state); assay type: physicochemical; details: for Assay (Bempedoic Acid): in % (unit assumed)
Experimental: The fixed dose combination product under development is a novel combination of two drug substances and therefore determination of compatibility of the actives with each other was considered to be critical. The compatibility of the actives was assessed through HPLC analysis of binary mixtures of the drug substances at a ratio 1:18 (ezetimibe:bempedoic acid) in the solid state. Samples were stored at 60° C. and 40° C./75% RH in both open and closed containers for 2 weeks and 4 weeks respectively. Degradation products were evaluated for open (stressed) samples of accelerated condition (40° C./75% RH) and 60° C. Assay for the samples was also carried out.

[7] = cited from earlier work
[8] = Forced degradation of ezetimibe; assay type: physicochemical
[9] = QC dissolution of ezetimibe component (0.45% SLS in 0.05 M acetate buffer pH 4.5, Apparatus-II, 50 rpm, 500 mL); assay type: physicochemical; details: QC dissolution medium, within 15 minutes
Experimental: Drug release profiles for both actives were estimated using common chromatographic conditions with different injection volumes.
The goal of Formulation Development Study #2 was to optimize the concentration of binder used for the granulation of ezetimibe. Wet granulation was used for the preparation of ezetimibe granules. Binder solution, povidone with SLS, and ezetimibe were used for the granulation of dry-mix powder blend. One trial with a higher concentration of povidone (3 mg/tablet) and another with a lower concentration (1 mg/tablet) were performed to observe the impact of binder concentration on dissolution. Ezetimibe granules were mixed with Bempedoic acid granules separately and compressed into a monolayer tablet for both trials.
Dissolution Profile of FDC test product (ezetimibe component) in QC media is given in Table 52, Table 53, FIG. 15, and FIG. 16.

[10] = Drug substance attributes (solubility, permeability, BCS class, hygroscopicity); assay type: physicochemical
[11] = 18.48 mg of solid in Sun cabinet 765 W/m2 at 35° C. for 24 hrs
[12] = 21.41 mg of solid + Heating at 80° C. for 24 hrs
[13] = 5.0 mL stock solution + Heating at 80° C. for 30 min
[14] = 5.0 mL stock solution in Sun cabinet 765 W/m2 at 35° C. for 15 hrs

drug released [1]: more than 85% | Hausner's ratio [2]: 1.48 | compressibility index [2]: 32.6% | pKa [3]: 4.88 | pKa ([3]; second value): 5.6 | logP ([4]; octanol/pH 3.5 buffer, pH 3.5): 4.38 | logP ([4]; octanol/water): 4.33 | Assay ([5]; Non stressed bempedoic acid): 99.0% | Assay ([5]; Photo, solid state): 99.2% | Assay ([5]; Thermal, solid state 105° C.): 95.8% | Assay ([5]; Thermal, solution 105 C): 97.7% | stability in the stress test study ([5]; all studied stress conditions): stable at all studied conditions | Assay ([5]; exposed to H2O2): 100.4% | Assay ([5]; exposed to HCl): 98.7% | Assay ([5]; exposed to NaOH, differs from expected ~100% due to non-quantitative neutralization prior to injection (footnote 2)): 117.3(2) % | Assay (Bempedoic Acid) ([6]; 2W 60°): 100.2 | Assay (Bempedoic Acid) ([6]; 4W 40° C./75% RH Open): 103.7 | unspecified impurity ([6]; Initial, 2W 60°, 4W 40° C./75%): No unspecified impurity generated | Assay (Bempedoic Acid) ([6]; Initial): 101.7
Compound: CC(C)(CCCCCC(O)CCCCCC(C)(C)C(=O)O)C(=O)O [Bempedoic acid, 8-hydroxy-2,2,14,14-tetramethylpentadecanedioic acid]
aqueous solubility [7]: pH dependent | aqueous solubility ([7]; listed as Bempedoic acid (ETC-1002)): poorly soluble in water

Hausner's ratio [2]: 1.42 | compressibility index [2]: 29.60% | pKa [3]: 9.75 | logP ([4]; n-octanol/pH 7 aqueous phase, n-octanol: pH 7): 4.51 | logP ([4]; pH 1, n-octanol: 0.1N HCl): 4.52 | % Degradation, Total (unspecified and specified) [8, 11]: 0.22% | Assay [8, 11]: 98.0% | % Degradation, Total (unspecified and specified) [8, 12]: 0.14% | Assay [8, 12]: 96.3% | Assay ([8]; 5.0 mL stock solution + 0.1 mL 1N NaOH at RT for 30 min): 83.1% | Assay ([8]; 5.0 mL stock solution + 1 mL 1N HCl at RT for 24 hrs): 97.9% | Assay ([8]; 5.0 mL stock solution + 1 mL H2O2 30% at RT for 24 hrs): 97.0% | % Degradation, Total (unspecified and specified) [8, 13]: 5.67% | Assay [8, 13]: 93.1% | % Degradation, Total (unspecified and specified) [8, 14]: 1.57% | Assay [8, 14]: 95.0% | % Degradation, Total (unspecified and specified) ([8]; Non stressed ezetimibe): 0.12% | Assay ([8]; Non stressed ezetimibe): 100.0% | stability classification from forced degradation ([8]; exposure to alkali (NaOH) and peroxide (H2O2)): sensitive to alkali and peroxide | stability in the solid form ([8]; heat and photo irradiation, solid form): stable to heat and photo irradiation | Assay (EZT) ([6]; 2W 60°): 97.6% | EZT 21 (Keto impurity) ([6]; 2W 60°): 0.04 | EZT cyclic ether ([6]; 2W 60°): 0.12% | SMUI ([6]; 2W 60°): 0.17% | Total impurities ([6]; 2W 60°): 0.33% | Assay (EZT) ([6]; 4W 40° C./75% RH Open): 99.5% | EZT 21 (Keto impurity) ([6]; 4W 40° C./75% RH Open): 0.38 | EZT cyclic ether ([6]; 4W 40° C./75% RH Open): 0.9% | SMUI ([6]; 4W 40° C./75% RH Open): 0.19% | Total impurities ([6]; 4W 40° C./75% RH Open): 2.34% | Assay (EZT) ([6]; Initial): 99.3% | EZT 21 (Keto impurity) ([6]; Initial): 0.03 | SMUI ([6]; Initial): 0.03% | Total impurities ([6]; Initial): 0.06% | drug release (ezetimibe) [9]: more than 85% | Solubility [10]: low solubility
Compound: O=C1[C@H](CC[C@H](O)c2ccc(F)cc2)[C@@H](c2ccc(O)cc2)N1c1ccc(F)cc1 [Ezetimibe, (3R,4S)-1-(4-fluorophenyl)-3-[(3S)-3-(4-fluorophenyl)-3-hydroxypropyl]-4-(4-hydroxyphenyl) azetidin-2-one]
BCS class [10]: Ezetimibe is BCS class II compounds having low | aqueous solubility [7]: insoluble in aqueous media at all pH; also recorded: poorly soluble in water
